Laboratory results as given in patent publication US4298735A, “Folic acid derivatives” (Union Carbide Corporation, priority 1979, dated 1981).
One block for each compound: values may come before it.

Legend:
[1] = molecular target: whole milk folate binder (Bos taurus, UniProt P02702); experiment: Folate competitive protein binding (CPB) radioassay; conditions: for dose response curves generated using pteroyltyrosine [125I] as label: at high pH compared with lower pH
Method: The use of the Centria® analytical system, Union Carbide Corporation, in this example, is meant to be illustrative and other methods, both automated and manual, obvious to those skilled in the clinical diagnostic art are also within the scope of this invention.
Briefly, the Centria® system is a tri-modular instrument in which reagents are pipetted on to a multi-well transfer disk and mixed centrifugally with standards or patients' samples. After a suitable incubation period, the components are separated by a centrifugal elution of the bound and free fractions and the bound fractions counted three at a time.
Folic acid and N^5 -methyltetrahydrofolic acid standards in the range 0-20 nanograms/milliliter were prepared in 0.05 M sodium borate, pH 9.3 containing 0.1% human serum albumin. The whole milk binder was prepared according to the method of Rothenberg et al., ^(3) and dissolved in sodium borate, pH 9.3 containing 0.1% human serum albumin
(50 microliters, 20,000 cpm) plus 85 microliters of water with the limited number of binding sites contained in a 200 microliter solution of whole milk folate binder. The binding reactions may be shown as follows:
A gamma counter which counts three of the 36 positions at a time for one minute, so constructed that only the eluate bottom portion of the test tubes fits into the counter, was then used to count all samples. Sequential counting of the tubes thus required about 12 minutes. A small computer with printout capability then printed out the data after completion of the cycle.

[2] = Storage stability of the radioiodinated label; format: physicochemical; conditions: stored in a 50% aqueous propylene glycol solution, ten-week period
Description: Radioiodination of biological compounds frequently leads to marked chemical instability and subsequent degradation of the radiolabel. This problem is often accentuated in the radiolabel when the materials to be radioiodinated are known to be sensitive to oxygen, light or extremes in pH, as is the case with folic acid and some derivatives.
The reaction mixture was applied to a 1×20 cm Sephadex G25, fine, (Pharmacia Fine Chemicals, Uppsala, Sweden) column hydrated with distilled water and equilibrated with 0.1 M potassium phosphate, pH 7.5. The column was eluted with 0.1 M potassium phosphate buffer and 3 ml fractions collected. The product "peak" fractions 32-34 were collected, diluted 1:1 with propylene glycol and stored below 0° C.

[3] = test system: carboxypeptidase A; experiment: Enzymatic hydrolysis of pteroyltyrosine followed by UV; format: biochemical; conditions: 0.025 M Tris-HCl, 2 mM zinc chloride, pH 7.3, two hours, ambient temperature
Method: Two milliliters of a solution of pteroyltrosine (0.75 mmoles/ml) in 0.025 M Tris-HCl containing 2 mM zinc chloride, pH 7.3 were diluted to 10 ml with distilled water. A portion of this solution (2 ml) was placed in a 1 cm cuvette and in another was placed 2 ml of distilled water. To each of the cuvettes was added 50 μl of a solution of 100 μl carboxypeptidase A suspension (Aldrich chemical, lot 060637) diluted with 0.9 ml of 10% lithium chloride.
The time course of the reaction was followed spectrophotometrically (uv) over a period of two hours at ambient temperature. An increase and shift in max from 280 to 277 nm and a marked decrease in absorption at 220 nm was observed. Two isosbestic points at 242 and 282 nm were visible.

whole milk folate binder, sequence (P02702 20-234): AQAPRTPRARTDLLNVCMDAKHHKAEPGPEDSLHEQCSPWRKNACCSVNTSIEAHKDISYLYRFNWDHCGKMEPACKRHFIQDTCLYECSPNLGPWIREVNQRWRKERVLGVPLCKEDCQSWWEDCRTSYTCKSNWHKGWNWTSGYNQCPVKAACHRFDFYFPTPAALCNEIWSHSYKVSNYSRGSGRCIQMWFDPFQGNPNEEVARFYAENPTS

SMILES: CN1c2c(nc(N)[nH]c2=O)NCC1CNc1ccc(C(=O)N[C@@H](CCC(=O)O)C(=O)O)cc1 (some centres unmarked) [N^5 -methyl THF, N-5-methyltetrahydrofolic acid]
dose response curves generated using pteroyltyrosine [125I] as label [1]: more nearly coincident

SMILES: Nc1nc2ncc(CNc3ccc(C(=O)N[C@@H](CCC(=O)O)C(=O)O)cc3)nc2c(=O)[nH]1 [folic acid]
dose response curves generated using pteroyltyrosine [125I] as label [1]: more nearly coincident

stability of radioiodinated product (assay performance on storage) [2]: no deterioration in assay performance
performance as radiolabel in CPB radioassay for folic acid ([1]; folic acid concentration range of 0-20 ng/ml): effective radiolabel
SMILES: Nc1nc(O)c2nc(CNc3ccc(C(=O)N[C@@H](Cc4ccc(O)c([125I])c4)C(=O)O)cc3)cnc2n1 [pteroyltyrosine [^125 I]]

SMILES: Nc1nc2ncc(CNc3ccc(C(=O)N[C@@H](Cc4ccc(O)cc4)C(=O)O)cc3)nc2c(=O)[nH]1 [pteroyltyrosine, Pteroyl-L-Tyrosine]
hydrolysis by carboxypeptidase A (UV time course, final spectrum) [3]: final spectrum was very similar to that of pteroic acid
